Source: US5739127A, “2,4'-bridged bis-2,4-diaminoquinazolines” (Bayer Aktiengesellschaft, priority 1996, dated 1998)

Biological target: apamine binding sites (apamine-sensitive potassium channels), bovine cerebral membrane
Assay: Binding of 125I-apamine to bovine cerebral membrane
Details: 30 pM 125I-apamine, bovine (calf) hippocampus membranes, 200 μg membrane protein, 60 min on ice
Procedure: The compounds according to the invention are ligands for apamine-sensitive potassium channels. This can be shown by studying the affinity for apamine binding sites, e.g. in bovine cerebral membranes.
1) Binding of^125 I-apamine to bovine cerebral membrane
Calf brains were obtained from the local abattoir. The hippocampus was prepared on ice and a membrane suspension was made up by homogenization twice in buffer (100 mM Tris-HCl, KCl 5 mM, pH 7.4) and centrifugation at 43,000×g. In a total volume of 500 μl, the incubation mixture contained 200 μg of membrane protein, 30 pM ^125 I-apamine and test substances in the concentration range 1×10^-9 to 1×10^-4 M. The non-specific binding of ^125 I-apamine was determined in the presence of 1×10^-7 M unlabelled apamine.
After preincubation for 30 rain at room temperature (test substances and membrane homogenate), the samples were placed on ice for 10 min before the radioligand was added. The main incubation time was 60 min on ice. When the reaction time had elapsed, an excess of ice-cooled incubation buffer was added to each sample and the mixture was filtered with suction through cellulose acetate/nitrate membrane filters. The amount of bound ^125 I-apamine was measured with a gamma counter.

NC(=O)C1CCCN(c2nc(N3CCC(CNc4nc(N5CCCC5)nc5ccccc45)CC3)nc3ccccc23)C1 (stereo not shown) [Example 5]
Ki: 150 nM
